In US9556201B2, “Bicyclic pyridines and analogs as sirtuin modulators” (GLAXOSMITHKLINE LLC, priority 2009, dated 2017) one finds EC1.5 (concentration giving 1.5-fold activation), Emax and EC1.5 data, which are given here for 36 compounds.

Each structure is given as a SMILES string.

This assay addresses T1, SIRT1 (Homo sapiens, UniProt Q96EB6).
T1 sequence (Q96EB6 1-747): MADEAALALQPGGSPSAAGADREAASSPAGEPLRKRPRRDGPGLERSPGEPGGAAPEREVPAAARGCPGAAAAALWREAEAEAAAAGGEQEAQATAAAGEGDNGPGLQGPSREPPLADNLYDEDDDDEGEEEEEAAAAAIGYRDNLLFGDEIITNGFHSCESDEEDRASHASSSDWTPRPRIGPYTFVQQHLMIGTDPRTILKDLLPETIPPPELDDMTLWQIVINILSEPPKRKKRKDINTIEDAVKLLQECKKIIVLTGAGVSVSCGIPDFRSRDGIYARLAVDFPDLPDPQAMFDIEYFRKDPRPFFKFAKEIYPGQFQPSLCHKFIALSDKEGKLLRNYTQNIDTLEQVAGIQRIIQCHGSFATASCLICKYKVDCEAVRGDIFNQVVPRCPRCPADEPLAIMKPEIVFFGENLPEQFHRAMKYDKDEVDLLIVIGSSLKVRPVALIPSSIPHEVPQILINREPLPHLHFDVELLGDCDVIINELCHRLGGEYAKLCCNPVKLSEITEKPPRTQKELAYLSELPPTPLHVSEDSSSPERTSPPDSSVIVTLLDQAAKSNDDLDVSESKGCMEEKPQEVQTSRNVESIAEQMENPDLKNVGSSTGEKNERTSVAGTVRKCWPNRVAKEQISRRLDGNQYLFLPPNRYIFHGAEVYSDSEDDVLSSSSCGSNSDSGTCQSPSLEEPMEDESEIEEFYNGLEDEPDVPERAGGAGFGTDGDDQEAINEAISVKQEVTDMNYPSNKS
As to the kind of experiment: Mass spectrometry based assay to identify modulators of SIRT1 activity (deacetylation of p53-based acetylated peptide substrate). It is filed as biochemical. To be noted: for Emax: 25 min, read-out: % FOLD ACT. (percent maximum fold activation); for Emax / EC1.5: SIRT1 activation. From the text: A mass spectrometry based assay was used to identify modulators of SIRT1 activity. The mass spectrometry based assay utilizes a peptide having 20 amino acid residues as follows: Ac-EE-K(biotin)-GQSTSSHSK(Ac)NleSTEG-K(5TMR)-EE-NH2 (SEQ ID NO: 1) wherein K(Ac) is an acetylated lysine residue and Nle is a norleucine. The peptide is labeled with the fluorophore 5TMR (excitation 540 nm/emission 580 nm) at the C-terminus. The sequence of the peptide substrate is based on p53 with several modifications. In addition, the methionine residue naturally present in the sequence was replaced with the norleucine because the methionine may be susceptible to oxidation during synthesis and purification.
The mass spectrometry assay is conducted as follows: […] peptide substrate and 120 μM βNAD^+ is incubated with 10 nM SIRT1 for 25 minutes at 25° C. in a reaction buffer (50 mM Tris-acetate pH 8, 137 mM NaCl, 2.7 mM KCl, 1 mM MgCl2, 5 mM DTT, 0.05% BSA). Test compounds may be added to the reaction as described above. The SirT1 gene is cloned into a T7-promoter containing vector and transformed into BL21(DE3). After the 25 minute incubation with SIRT1, 10 μL of 10% formic acid is added to stop the reaction. Reactions are sealed and frozen for later mass spec analysis. Determination of the mass of the substrate peptide allows for precise determination of the degree of acetylation (i.e. starting material) as compared to deacetylated peptide (product).
A control for inhibition of sirtuin activity is conducted by adding 1 μL of 500 mM nicotinamide as a negative control at the start of the reaction (e.g., permits determination of maximum sirtuin inhibition). A control for activation of sirtuin activity is conducted using 10 nM of sirtuin protein, with 1 μL of DMSO in place of compound, to determine the amount of deacetylation of the substrate at a given timepoint within the linear range of the assay. This timepoint is the same as that used for test compounds and, within the linear range, the endpoint represents a change in velocity.
For the above assay, SIRT1 protein was expressed and purified as follows. The SirT1 gene was cloned into a T7-promoter containing vector and transformed into BL21(DE3). The protein was expressed by induction with 1 mM IPTG as an N-terminal His-tag fusion protein at 18° C. overnight and harvested at 30,000×g. Cells were lysed with lysozyme in lysis buffer (50 mM Tris-HCl, 2 mM Tris[2-carboxyethyl]phosphine (TCEP), 10 μM ZnCl2, 200 mM NaCl) and further treated with sonication for 10 min for complete lysis. The protein was purified over a Ni-NTA column (Amersham) and fractions containing pure protein were pooled, concentrated and run over a sizing column (Sephadex S200 26/60 global). The peak containing soluble protein was collected and run on an Ion-exchange column (MonoQ). Gradient elution (200 mM-500 mM NaCl) yielded pure protein. This protein was concentrated and dialyzed against dialysis buffer (20 mM Tris-HCl, 2 mM TCEP) overnight. The protein was aliquoted and frozen at −80° C. until further use.

`O=C(Nc1ncccc1F)N1CCC(F)(F)c2ccc(-c3cccc(C(F)(F)F)c3)nc21` [Compound 822]: the EC1.5 (concentration giving 1.5-fold activation) was in the range of 1 to 25 µM and the Emax was at most 200%. `O=C1CCCN(C(=O)Nc2ccccn2)c2nc(-c3cccc(Cl)c3)ccc21` [Compound 768]: the EC1.5 (concentration giving 1.5-fold activation) is below 1 µM and the Emax was above 200%.

Take `CN(C)c1nc(-c2cccc(F)c2)nc2c1OCCN2C(=O)Nc1ccncn1` [Compound 757]: the EC1.5 (concentration giving 1.5-fold activation) is above 25 µM and the Emax was at most 200%. `CN1C(=O)CN(C(=O)Nc2cccnn2)c2nc(-c3cccc(C(F)(F)F)c3)ccc21` [Compound 528]: the Emax was at most 200% and the EC1.5 entry is reported as “C (EC1.5>25 μM)”.

With `O=C(Nc1ccncc1F)N1CCC(F)(F)c2ccc(-c3cccc(C(F)(F)F)c3)nc21` [Compound 746], the EC1.5 (concentration giving 1.5-fold activation) lay within 1 to 25 µM and the Emax was at most 200%. Consider `O=C(Nc1ccncc1)N1CCOc2ccc(-c3ccccc3F)nc21` [Compound 544], for which the Emax is above 200% and the EC1.5 result is recorded as “B (EC1.5 1-25 μM)”. As for `O=C(Nc1ccncc1F)N1CCCCc2ccc(-c3cccc(C(F)(F)F)c3)nc21` [Compound 817], the EC1.5 (concentration giving 1.5-fold activation) was 1 to 25 µM and the Emax was above 200%.

In the case of `Cn1cc(NC(=O)N2CCCOc3ccc(-c4cccc(Cl)c4)nc32)cn1` [Compound 708], the EC1.5 (concentration giving 1.5-fold activation) is 1 to 25 µM and the Emax was above 200%. On to `Cc1cc(-c2cccc(Cl)c2)nc2c1OCCN2C(=O)Nc1ccncn1` [Compound 685], for which the Emax was above 200% and the EC1.5 result is “A (EC1.5<1.0 μM)”.

For the compound `O=C(Nc1ccncn1)N1CCOc2cnc(-c3cccc(C(F)(F)F)c3)nc21` [Compound 714], the EC1.5 (concentration giving 1.5-fold activation) is 1 to 25 µM and the Emax was at most 200%. For `O=C(Nc1ccncn1)N1CCOc2c(N3CCOCC3)nc(-c3cccc(F)c3)nc21` [Compound 758] the same measures were above 25 µM and at most 200%. With `Cc1csc(NC(=O)N2CCCC(F)(F)c3ccc(-c4cccc(Cl)c4)nc32)n1` [Compound 779], the EC1.5 (concentration giving 1.5-fold activation) is above 25 µM and the Emax was at most 200%. Consider `CC1(C)CN(C(=O)Nc2cncc(F)c2)c2nc(-c3cccc(Cl)c3)ccc2O1` [Compound 601], for which the Emax is above 200% and the EC1.5 entry is on record as “A (EC1.5<1.0 μM)”. Consider `Cc1ccc(NC(=O)N2CCOc3ccc(-c4cccc(C(F)(F)F)c4)nc32)c(C)n1` [Compound 552], for which the Emax is above 200% and the EC1.5 entry is recorded as “B (EC1.5 1-25 μM)”. For `Cc1ccc(-c2ccc3c(n2)N(C(=O)Nc2nc(C)cs2)CCCO3)cn1` [Compound 680] the same measures were above 200% and “B (EC1.5 1-25 μM)”. Regarding `Cc1cncc(NC(=O)N2CCCOc3ccc(-c4cccc(C(F)(F)F)c4)nc32)c1` [Compound 576], the Emax is above 200% and the EC1.5 entry is on record as “B (EC1.5 1-25 μM)”. On to `CC1(C)CCN(C(=O)Nc2ccccn2)c2nc(-c3cccc(C(F)(F)F)c3)ccc21` [Compound 827], for which the EC1.5 (concentration giving 1.5-fold activation) is below 1 µM and the Emax was above 200%. Take `O=C(Nc1ncccn1)N1CCCc2ccc(-c3cccc(F)c3)nc21` [Compound 665]: the Emax was above 200% and the EC1.5 entry is “B (EC1.5 1-25 μM)”. Consider `O=C(Nc1cccc(OCC(O)CO)n1)N1CCOc2ncc(-c3cccc(C(F)(F)F)c3)nc21` (centres unmarked) [Compound 742], for which the EC1.5 (concentration giving 1.5-fold activation) is below 1 µM and the Emax is above 200%. On to `O=C(Nc1ccncn1)N1CCOc2ccc(-c3cccnc3)nc21` [Compound 516], for which the Emax was at most 200% and the EC1.5 entry is on record as “C (EC1.5>25 μM)”. For `Cc1cc(NC(=O)N2CCOc3ccc(-c4c(C)noc4C)nc32)cc(C)n1` [Compound 573], the Emax was above 200% and the EC1.5 entry is reported as “B (EC1.5 1-25 μM)”. Take `Cc1cnccc1NC(=O)N1CCCOc2ccc(-c3cccc(Cl)c3)nc21` [Compound 855]: the EC1.5 (concentration giving 1.5-fold activation) was 1 to 25 µM and the Emax is at most 200%. Take `O=C(Nc1ccncn1)N1CCCOc2ccc(-c3cccc(N4CCCC4)c3)nc21` [Compound 627]: the Emax was above 200% and the EC1.5 entry was “B (EC1.5 1-25 μM)”. On to `O=C(Nc1cncnc1)N1CCCOc2ccc(-c3cccc(Cl)c3)nc21` [Compound 852], for which the EC1.5 (concentration giving 1.5-fold activation) lay within 1 to 25 µM and the Emax is above 200%. In the same order, the values of `CC1(C)CCN(C(=O)Nc2ccncc2)c2nc(-c3cccc(Cl)c3)ccc2C1=O` [Compound 832] are 1 to 25 µM and at most 200%.

As to `O=C(Nc1ccncc1)N1CCOc2ccc(-c3cccc(F)c3)nc21` [Compound 542], the Emax was above 200% and the EC1.5 entry is reported as “B (EC1.5 1-25 μM)”. `Cc1ccnc(NC(=O)N2CCCOc3ccc(-c4cccc(Cl)c4)nc32)c1` [Compound 763]: the EC1.5 (concentration giving 1.5-fold activation) lay within 1 to 25 µM and the Emax was above 200%. In the same order, the values of `O=C(Nc1cncc(F)c1)N1CCCOc2ccc(-c3cccc(Cl)c3)nc21` [Compound 853] are 1 to 25 µM and above 200%. Take `CCN1C(=O)CCN(C(=O)Nc2cccc(OC[C@@H](O)CO)n2)c2nc(-c3cccc(Cl)c3)ccc21` [Compound 788]: the EC1.5 (concentration giving 1.5-fold activation) was above 25 µM and the Emax was at most 200%.

With `Cc1cnccc1NC(=O)N1CCC(F)(F)c2ccc(-c3cccc(C(F)(F)F)c3)nc21` [Compound 744], the EC1.5 (concentration giving 1.5-fold activation) was above 25 µM and the Emax was at most 200%.

As for `O=C(Nc1ccccn1)N1CCCOc2ccc(-c3cccc(Cl)c3)nc21` [Compound 761], the EC1.5 (concentration giving 1.5-fold activation) was 1 to 25 µM and the Emax is above 200%. In the same order, the values of `O=C(Nc1ccncc1)N1CCOc2cnc(-c3cccc(C(F)(F)F)c3)nc21` [Compound 715] are 1 to 25 µM and at most 200%.

In the case of `O=C(Nc1ncccn1)N1CCCOc2ccc(-c3cccc(C(F)(F)F)c3)nc21` [Compound 643], the Emax was above 200% and the EC1.5 entry is “B (EC1.5 1-25 μM)”. On to `CN1CCN(C(=O)Nc2nccs2)c2nc(-c3cccc(C(F)(F)F)c3)ccc21` [Compound 529, 1-methyl-N-(thiazol-2-yl)-6-(3-(trifluoromethyl)phenyl)-2,3-dihydropyrido[2,3-b]pyrazine-4(1H)-carboxamide], for which the Emax was above 200%. In the case of `O=C(Nc1c(F)c(F)c(F)c(F)c1F)N1CCCOc2ccc(-c3cccc(C(F)(F)F)c3)nc21` [Compound 693], the Emax was at most 200% and the EC1.5 result is “C (EC1.5>25 μM)”. Consider `CN1C(=O)CN(C(=O)Nc2ccncc2)c2nc(-c3cccc(C(F)(F)F)c3)ccc21` [Compound 525], for which the Emax was above 200% and the EC1.5 entry is “B (EC1.5 1-25 μM)”.
